In US9663454B2, “3-aryl propiolonitrile compounds for thiol labeling” (Universite de Strasbourg, priority 2013, dated 2017):

Columns and labels:
[1] = Hydrolytic stability in PBS, HPLC monitoring; type: physicochemical; settings: PBS (1×, pH 7.6), 1 mM, 25° C.
Method: FIG. 3a-3b: HPLC monitoring of the hydrolysis of phenylmaleimide (2) in PBS (1×, pH 7.6) at 1 mM concentration at 25° C.; the peaks correspond, from the earliest to the latest, to
[drawing 5] conversion was monitored by disappearance of the starting material (a). Pseudo first order rate constant for the reaction was determined by plotting the ln([phenylmaleimide]) versus time and analyzing by linear regression. The constant corresponds to the absolute value of determined slope (b).
FIG. 4: HPLC monitoring of hydrolytic stability of N-(4-(cyanoethynyl)phenyl)acetamide (pNHAc-APN, 11) in PBS (1×, pH 7.6) at 1 mM concentration at 25° C. Conversion was monitored by disappearance of the starting material; the peaks correspond, from the earliest to the latest, to
To a vial containing 980 μL of PBS (1×, pH 7.6), were subsequently added 10 μL of a stock solution of benzamide and 10 μL of a stock solution of electrophile (phenylmaleimide 1 or
[drawing 112] 11) to give final concentration of 1 mM (both internal standard and electrophile). Aliquots of the reaction mixture (50 μL) were analyzed by HPLC for 5 hours of hydrolysis (injection every 30 min). Areas under the peaks of the starting materials and hydrolysis products were normalized according to the area of the peak of the internal standard.

[2] = Selectivity screening of electrophiles, whole panel of amino acid models; settings: 1 hour, PBS (1×, pH 7.6), 1 mM reagents
Method: Screening for selectivity was done on benzylamides of non-protected amino acids. 100 mM stock solutions of benzylamides of amino acids (in form of TFA salts) and electrophiles (phenylpropiolonitrile and phenylmaleimide) were prepared in DMSO and stored at −20° C. A 100 mM stock solution of benzamide (used as an internal standard) was prepared in distilled water and stocked at −20° C. Analyses of reaction mixtures were conducted with Shimadzu LC with SunFire™ C18 5 μM 4.6×150 mm column (Waters). HPLC parameters were as follows: flow rate 1 mL/min, gradient from 5 to 95% of mobile phase B from 0 to 20 min, followed by 5 min at 95% of mobile phase and post time of 5 min. Mobile phase A was 0.05% TFA in water (mQ) (v/v), and mobile phase B was acetonitrile (HPLC grade). Data were analyzed using Shimadzu analysis software. Signals were normalized according to the area of the peak of the internal standard (benzamide). […]
10 μL of the stock solution of amino acid benzamide and 2.5 μL of the stock solution of benzamide were added to a vial containing 977.5 μL of PBS (1×, pH 7.6). […] Aliquots of the reaction mixture (50 μL) were analyzed by HPLC for 1 hour of hydrolysis (injections at 0, 30 and 60 min). […] Masses of corresponding adducts were detected by mass spectrometry (ESI-LCMS) in some cases (shown in bold, Table 4).

[3] = Selectivity screening of electrophiles on amino acid benzylamides, HPLC; settings: in 1 hour in PBS (1×, pH 7.6) in presence of the electrophile, 1 mM reagents
Method: Screening for selectivity was done on benzylamides of non-protected amino acids. 100 mM stock solutions of benzylamides of amino acids (in form of TFA salts) and electrophiles (phenylpropiolonitrile and phenylmaleimide) were prepared in DMSO and stored at −20° C. A 100 mM stock solution of benzamide (used as an internal standard) was prepared in distilled water and stocked at −20° C. Analyses of reaction mixtures were conducted with Shimadzu LC with SunFire™ C18 5 μM 4.6×150 mm column (Waters). HPLC parameters were as follows: flow rate 1 mL/min, gradient from 5 to 95% of mobile phase B from 0 to 20 min, followed by 5 min at 95% of mobile phase and post time of 5 min. Mobile phase A was 0.05% TFA in water (mQ) (v/v), and mobile phase B was acetonitrile (HPLC grade). Data were analyzed using Shimadzu analysis software. Signals were normalized according to the area of the peak of the internal standard (benzamide). Areas under the peaks of the amino acid benzylamides were used to calculate their conversion during reaction.
10 μL of the stock solution of amino acid benzamide and 2.5 μL of the stock solution of benzamide were added to a vial containing 977.5 μL of PBS (1×, pH 7.6). The solution was stirred and 10 μL of the stock solution of electrophile were added to give 1 mM final concentrations of reagents and 0.25 mM concentration of benzamide. Aliquots of the reaction mixture (50 μL) were analyzed by HPLC for 1 hour of hydrolysis (injections at 0, 30 and 60 min). Areas under the peaks of the starting materials and hydrolysis products were normalized according to the area of peak of the internal standard. In case of phenylpropiolonitrile, none of amino acid models gave more than 1.6% conversion (see table 3 below). […] Masses of corresponding adducts were detected by mass spectrometry (ESI-LCMS) in some cases (shown in bold, Table 4).

BNL CL.2 cells = test: Stability of probes A and B in cellulo (cytometry, microscopy); type: cell-based, mouse; settings: 1 μM, 2, 6 and 24 hours, FIG. 2
Method: FIG. 2a-2c: a) Evolution of intensity of fluorescence over time obtained in cellulo for the same concentration of compounds A and B. • b) Intensity ratio compound B/compound A at different times in cellulo. • c) Microscope pictures of cells treated with compounds A and B, superimposition of TAMRA and Hoechst labeling. White spots around nucleus correspond to hydrolyzed probe. A—arylpropiolonitrile probe, B—maleimide probe.
Normal liver BNL CL.2 cells from mouse were grown in Dulbecco's MEM medium with 1 g/l glucose (Eurobio, Les Ulis, France) supplemented with 10% fetal bovine serum (Perbio, Brebieres, France), 2 mM L-Glutamine, 100 U/mL penicillin, 100 μg/mL streptomycin (Eurobio). Cells were maintained in a 5% CO2 humidified atmosphere at 37° C.
The required amounts of probes A and B were diluted up to 300 μl in MEM complete medium to give final concentration of 1 μM and then added onto the cells. A 5 μg/ml of Hoechst 118 solution was used as a nuclear marker.
The day before experiment, BNL CL.2 cells were seeded in 96-plates (Greiner Bio One, Frickenhausen, Germany) at 2.0×10^4 cells/well in Dulbecco's MEM complete medium. […] After washing with PBS (Eurobio), 5 min incubation with 40 μl trypsine, and addition of 160 μl of PBS EDTA 5 mM, cells were analyzed by flow cytometry on a PCA-96 Guava cytometer (Guava Technologies Merck Millipore, Billerica, Mass., USA) with a green laser.

[4] = Stability of probes A and B in human plasma (fluorescence over time); type: in vitro ADME; settings: same concentration of A and B, FIG. 1
Text: FIG. 1: Evolution of intensity of fluorescence over time obtained in human plasma for the same concentration of compounds A and B.
The stability of compounds A (according to the invention) and B (reference compound) below was studied in different biological conditions.

Row | hydrolysis (in words) ([1]; up to 5 hours of monitoring) | Compound | kobs (pseudo first order rate constant of hydrolysis) [1] [s⁻¹] | highest conversion among the amino acid models other than cysteine [2] | Conversion of AlaNHBn (7c) [3] [%] | Conversion of ArgNHBn (7k) [3] [%] | Conversion of AspNHBn (7l) [3] [%] | Conversion of CysNHBn (7a) [3] [%] | Conversion of GlnNHBn (7i) [3] [%] | Conversion of GlyNHBn (7b) [3] [%] | Conversion of HisNHBn (7h) [3] [%] | Conversion of MetNHBn (7f) [3] [%] | Conversion of SerNHBn (7e) [3] [%] | Conversion of TrpNHBn (7j) [3] [%] | Conversion of TyrNHBn (7g) [3] [%] | Conversion of ValNHBn (7d) [3] [%] | stability in cellulo (in words) (BNL CL.2 cells) | stability in human plasma (in words) [4]
1 | Noticeable hydrolysis | O=C1C=CC(=O)N1c1ccccc1 [phenylmaleimide, reference compound] | 7e-05 | up to 8.5% | 0.2 | 2.9 | 1.3 | 100 | 1.7 | 3.3 | 8.5 | 1.9 | 2.8 | 1.0 | 2.4 | 0.9 |  | 
2 |  | COc1cc(/N=N/c2ccc([N+](=O)[O-])cc2)c(OC)cc1/N=N/c1ccc(N(C)CCCC(=O)NCCSC(=CC#N)c2ccc(NC(=O)CCCNC(=O)c3ccc(-c4c5ccc(=[N+](C)C)cc-5oc5cc(N(C)C)ccc45)c(C(=O)[O-])c3)cc2)cc1 [A] |  |  |  |  |  |  |  |  |  |  |  |  |  |  | far more stable than compound B in cellulo | far more stable than compound B in human plasma
